This assay concerns geranium cuttings. Nature of the assay: Root initiation and survival of geranium cuttings after treatment. It is filed as in vivo, Pelargonium graveolens. Also on record: % survivality, Normal / % survivality, Two node / % survivality, Apical: concentration or dose not given beside the values. As to conditions: for % survivality, Apical: apical cuttings; for % survivality, Normal: normal cuttings; for % survivality, Two node: two node cuttings. An excerpt:
Geranium cuttings treated with Bacillus strain MTCC-5130, initiated rooting after 22–25 days of treatment, which was 5–7 days earlier than untreated control cuttings.

Indole butyric acid [IBA]: for the setting “cuttings of Dec. 5, 2001”, the “Root initiation (days after)” value amounted to 28 days; the “% survivality, Apical” value was found to be 100.0%; the “% survivality, Normal” value stood at 100%; the “% survivality, Two node” value was 100%. Moreover, where the note is “cuttings of Nov. 20, 2001”, the “Root initiation (days after)” value was determined as 27 days; the “% survivality, Apical” value came out at 95.8%; the “% survivality, Normal” value came out at 100%; the “% survivality, Two node” value turned out to be 69.2%.

Values taken from patent US7211428B1, “Strain of Bacillus as a bioinoculant” (Council of Scientific and Industrial Research, priority 2004, dated 2007).
